# In PMC3889502, “Inhibitory effects of monoterpenes on human TRPA1 and the structural basis of their activity” (The Journal of Physiological Sciences : JPS, 2013):
# Entries after “also recorded” stand apart in the source; their conditions may differ.
# Key:
# [1] = target: T1, hTRPA1-S873V/T874L (Homo sapiens, UniProt O75762, S873V/T874L); assay: Whole-cell patch-clamp: inhibition of AITC-activated current in the mutant channel; type: cell-based; conditions: borneol 0.03, 0.3, 1 mM; camphor 0.03, 0.3, 3 mM; 1,8-cineole 1, 5, 10 mM; -60 mV; no extracellular Ca2+
# T1 construct: Full-length hTRPA1 was obtained from Life Technologies (Carlsbad, CA); expressed in transfected cells; host or cells: HEK293T
# Protocol: (§1) Whole-cell patch-clamp recordings were performed 1 day after transfection. The standard bath solution was the same as that used in the Ca^2+-imaging experiments, and extracellular Ca^2+ was removed and 5 mM EGTA added for the recording of AITC-, menthol- and FFA-induced current responses. The pipette solution contained 140 mM KCl, 5 mM EGTA, and 10 mM HEPES, pH 7.4 (adjusted with KOH). Data from the whole-cell voltage-clamp recordings were sampled at 10 kHz and filtered at 5 kHz for analysis (Axon 200B amplifier with pCLAMP software; Axon Instruments, Sunnyvale, CA). The membrane potential was clamped at −60 mV for all conditions. In some experiments, voltage ramp-pulses from −100 to +100 mV (500 ms) were applied every 5 s. All experiments were performed at room temperature.
# (§2) Data in all of the figures are shown as the mean ± standard error of the mean, and P values of <0.05 were considered to be significant. […] Dose-dependent curves were fit with a Hill equation.
# (§3) To test this hypothesis, we investigated whether the serine and threonine residues are involved in the inhibitory effect of borneol. […] We searched for an involvement of other amino acids in borneol activity.
# [2] = target: T2, hTRPA1-Y812A (Homo sapiens, UniProt O75762, Y812A); assay: as above; type: cell-based; conditions: borneol 0.03, 0.3, 1 mM; camphor 0.03, 0.3, 3 mM; 1,8-cineole 1, 5, 10 mM; -60 mV; no extracellular Ca2+
# T2 construct: Full-length hTRPA1 was obtained from Life Technologies (Carlsbad, CA); expressed in transfected cells; host or cells: HEK293T
# Protocol: as §1, §2, §3
# [3] = target: T3, hTRPA1 (Homo sapiens, UniProt O75762); conditions: cited from earlier work
# T3 construct: Full-length hTRPA1 was obtained from Life Technologies (Carlsbad, CA); host or cells: HEK293T
# [4] = target: T3, hTRPA1; assay: Ca2+-imaging (fura-2): activation by test compounds, normalized to menthol; type: cell-based; conditions: test compound 1 mM; HEK293T cells expressing hTRPA1
# Protocol: (§4) For Ca^2+-imaging, 1 μg of plasmid DNA containing hTRPA1 in pcDNA3 in OPTI-MEM medium (Life Technologies) was transfected into HEK293T cells using Lipofectamine Plus Reagent (Life Technologies). Following incubation for 3–4 h, cells were reseeded on coverslips and incubated further at 37 °C in 5 % CO2.
# (§5) Ca^2+-imaging was performed 1 day after transfection. […] Cytosolic-free Ca^2+ concentrations in HEK293T cells were measured by dual-wavelength fura-2 (Molecular Probes, Invitrogen Corp.) microfluorometry with excitation at 340/380 nm and emission at 510 nm. The fura-2 ratio image was calculated and acquired using the IP-Lab imaging processing system (Scanalytics Inc, Fairfax, VA). Ionomycin was used to confirm cell viability in the vector-transfected cells.
# In these experiments, changes in the fura-2 ratio (corresponding to cytosolic Ca^2+ concentrations) induced by the test compounds and menthol were compared because menthol, which activates hTRPA1, and the test compounds are members of the monoterpene family.
# Data are presented as the mean ± standard error of the mean (SEM) (n = 27–67)
# [5] = target: T3, hTRPA1; assay: Whole-cell patch-clamp: inhibition of agonist-induced hTRPA1 current; type: cell-based; conditions: for Inhibition of AITC-induced hTRPA1 current / IC50: AITC 20 μM; for Inhibition of AITC-induced hTRPA1 current / Inhibition of FFA-activated hTRPA1-mediated current / Inhibition of menthol-activated hTRPA1-mediated current: test compound 1 mM, -60 mV; for Inhibition of AITC-induced hTRPA1 current / IC50 / Inhibition of FFA-activated hTRPA1-mediated current / Inhibition of menthol-activated hTRPA1-mediated current: no extracellular Ca2+; for Comparison of inhibitory effects on hTRPA1 activity between optical isomers of borneol: AITC 20 μM-induced current (ESM Fig. 2); for IC50: patch-clamp, mean ± SEM, n = 5-10, Hill fit; for Inhibition of FFA-activated hTRPA1-mediated current: FFA 100 μM; for Inhibition of menthol-activated hTRPA1-mediated current: menthol 1 mM
# Protocol: (§6) Human embryonic kidney (HEK) 293T cells were maintained in DMEM (WAKO Pure Chemical Industries Ltd.) supplemented with 10 % fetal bovine serum (Biowest SAS, Caille, France), 100 U/mL penicillin (Life Technologies), 100 μg/mL streptomycin (Life Technologies), and 2 mM L-glutamine (GlutaMAX; Life Technologies) at 37 °C in 5 % CO2. For Ca^2+-imaging, 1 μg of plasmid DNA containing hTRPA1 in pcDNA3 in OPTI-MEM medium (Life Technologies) was transfected into HEK293T cells using Lipofectamine Plus Reagent (Life Technologies). Following incubation for 3–4 h, cells were reseeded on coverslips and incubated further at 37 °C in 5 % CO2.
# as §1, §2
# The current response was measured in the absence of extracellular Ca^2+ to minimize desensitization. […] The dose-dependency of the inhibitory effects of the three compounds on hTRPA1 was then examined using the patch-clamp method. […] Commercially available borneol contains both optical isomers.
# [6] = test system: mTRPA1; conditions: camphor 1 mM; current increased upon washing-out; cited from earlier work
# [7] = target: T3, hTRPA1; assay: Whole-cell patch-clamp: activation of hTRPA1 current by test compounds; type: cell-based; conditions: HEK293T cells expressing hTRPA1
# Protocol: as §6, §1
# In order to confirm the effects of the above compounds, we performed patch-clamp experiments with HEK293T cells expressing hTRPA1.
# Cells were held at −60 mV and ramp-pulses from −100 to +100 mV (500 ms) were administered every 5 s
# [8] = target: T3, hTRPA1; assay: Ca2+-imaging (fura-2): inhibition of menthol-induced cytosolic Ca2+ increase; type: cell-based; conditions: menthol 1 mM; test compound 1 mM; HEK293T cells expressing hTRPA1
# Protocol: as §4, §5
# Data are presented as the mean ± SEM (n = 47–79)
# [9] = test system: vector-transfected HEK293T cells; assay: Ca2+-imaging in vector-transfected cells (control); type: cell-based, human; conditions: with or without menthol; cells responded normally to ionomycin 5 μM
# Protocol: (§7) Ca^2+-imaging was performed 1 day after transfection. HEK293T cells on coverslips were mounted in an open chamber and superfused with a standard bath solution (140 mM NaCl, 5 mM KCl, 2 mM MgCl2, 2 mM CaCl2, 10 mM HEPES, and 10 mM glucose, pH 7.4). Cytosolic-free Ca^2+ concentrations in HEK293T cells were measured by dual-wavelength fura-2 (Molecular Probes, Invitrogen Corp.) microfluorometry with excitation at 340/380 nm and emission at 510 nm. The fura-2 ratio image was calculated and acquired using the IP-Lab imaging processing system (Scanalytics Inc, Fairfax, VA). Ionomycin was used to confirm cell viability in the vector-transfected cells.
# Washing-out of the three compounds after menthol exposure led to small increases in the fura-2 ratio, which could be due to the loss of inhibition and resumption of hTRPA1 activity from residual menthol in the cell.
# Supplementary file 12576_2013_289_MOESM1_ESM.jpg: Supplementary material 1 (JPEG 324 kb) Supplementary Figure 1. […] (n = 48-75)
# [10] = target: T4, hTRPA1 Y812A mutant (Homo sapiens, UniProt O75762, Y812A); assay: Ca2+-imaging screen of tyrosine mutants in TM2 and TM3 of hTRPA1; type: cell-based; conditions: data not shown
# T4 construct: Full-length hTRPA1 was obtained from Life Technologies (Carlsbad, CA); expressed in transfected cells; host or cells: HEK293T
# Protocol: as §7
# A mouse TRPA1 mutant in which serine and threonine residues located in the predicted inner side of TM5 were replaced with valine and leucine (S876V/T877L), respectively, was neither activated nor inhibited by menthol. […] To test this hypothesis, we investigated whether the serine and threonine residues are involved in the inhibitory effect of borneol. […] We searched for an involvement of other amino acids in borneol activity.
# [11] = test compound 1 mM, held at -60 mV, ramp-pulses -100 to +100 mV
# T1 sequence (O75762 whole entry S873V/T874L): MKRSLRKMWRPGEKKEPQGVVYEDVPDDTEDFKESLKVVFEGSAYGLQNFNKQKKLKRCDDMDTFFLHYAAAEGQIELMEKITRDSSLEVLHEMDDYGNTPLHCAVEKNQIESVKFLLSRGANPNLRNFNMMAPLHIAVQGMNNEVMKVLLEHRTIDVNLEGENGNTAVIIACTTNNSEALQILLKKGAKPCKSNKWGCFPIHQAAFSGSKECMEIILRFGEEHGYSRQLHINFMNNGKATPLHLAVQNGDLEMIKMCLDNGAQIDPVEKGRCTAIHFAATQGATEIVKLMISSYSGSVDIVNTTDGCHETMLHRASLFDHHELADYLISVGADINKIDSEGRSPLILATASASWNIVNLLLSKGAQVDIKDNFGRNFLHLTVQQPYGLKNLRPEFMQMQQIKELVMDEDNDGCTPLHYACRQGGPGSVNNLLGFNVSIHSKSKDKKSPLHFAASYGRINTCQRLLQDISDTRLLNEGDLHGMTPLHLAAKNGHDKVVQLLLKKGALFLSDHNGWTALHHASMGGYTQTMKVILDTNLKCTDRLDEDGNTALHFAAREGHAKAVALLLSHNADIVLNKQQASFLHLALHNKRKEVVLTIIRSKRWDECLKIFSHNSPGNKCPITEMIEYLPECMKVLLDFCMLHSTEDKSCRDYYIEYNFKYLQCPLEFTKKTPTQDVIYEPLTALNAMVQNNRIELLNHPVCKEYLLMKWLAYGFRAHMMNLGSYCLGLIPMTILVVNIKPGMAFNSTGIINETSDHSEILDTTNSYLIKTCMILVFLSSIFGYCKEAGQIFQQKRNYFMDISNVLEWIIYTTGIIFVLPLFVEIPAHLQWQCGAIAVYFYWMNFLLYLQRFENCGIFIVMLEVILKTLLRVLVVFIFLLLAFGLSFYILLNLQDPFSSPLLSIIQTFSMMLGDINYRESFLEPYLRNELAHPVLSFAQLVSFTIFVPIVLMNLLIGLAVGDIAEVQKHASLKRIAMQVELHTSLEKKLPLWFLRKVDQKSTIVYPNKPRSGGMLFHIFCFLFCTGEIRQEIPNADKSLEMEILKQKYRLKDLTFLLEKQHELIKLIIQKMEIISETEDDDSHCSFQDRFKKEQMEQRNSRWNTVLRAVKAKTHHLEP
# T3 sequence (O75762 whole entry): as the sequence (O75762 whole entry S873V/T874L) above, with V873S, L874T counted along it
# T2 sequence (O75762 whole entry Y812A): as the sequence (O75762 whole entry S873V/T874L) above, with Y812A, V873S, L874T counted along it
# T4 sequence (O75762 whole entry Y812A): as the sequence (O75762 whole entry S873V/T874L) above, with Y812A, V873S, L874T counted along it
smiles,measurement,setting,value
"CC12CCC(CC1)C(C)(C)O2 [1,8-Cineole]",Inhibitory effect on AITC-activated current of hTRPA1-S873V/T874L compared with hTRPA1-WT,[1],no significant changes
same,Inhibitory effect on AITC-activated current of hTRPA1-Y812A compared with hTRPA1-WT,[2],such differences between WT hTRPA1 and hTRPA1-Y812A were not observed
same,Effect on hTRPA1 (activation or inhibition),[3],inhibit hTRPA1
"CC12CCC(C1)C(C)(C)C2=O (single isomer, unassigned; (-)) [(−)-Fenchone]","Change in fura-2 ratio (340/380 nm) by test compound, normalized to the change by 1 mM menthol",[4],activated hTRPA1
CC12CCC(CC1=O)C2(C)C (centres unmarked) [Camphor],Inhibition of AITC-induced hTRPA1 current,[5],partially inhibited
same,Inhibitory effect on AITC-activated current of hTRPA1-S873V/T874L compared with hTRPA1-WT,[1],no significant changes
same,Inhibitory effect on AITC-activated current of hTRPA1-Y812A compared with hTRPA1-WT,[2],such differences between WT hTRPA1 and hTRPA1-Y812A were not observed
same,Effect on hTRPA1 (activation or inhibition),[3],inhibit hTRPA1
same,Effect on mTRPA1-mediated basal current,[6],inhibition of mTRPA1-mediated basal current
CC1(C)[C@H]2CC[C@]1(C)[C@H](O)C2 [(−)-borneol],Comparison of inhibitory effects on hTRPA1 activity between optical isomers of borneol,[5],no difference in the inhibitory effects
"CC(C)C12CCC(C)(CC1)O2 [1,4-cineole]",Effect on hTRPA1 (activation or inhibition),[3],activate hTRPA1
CC1CCC(C(C)C)C(O)C1 (centres unmarked) [menthol],Effect on hTRPA1 (activation or inhibition),[3],activate hTRPA1
CC1(C)[C@@H]2CC[C@@]1(C)[C@](C)(O)C2 [2-Methylisoborneol],"Change in fura-2 ratio (340/380 nm) by test compound, normalized to the change by 1 mM menthol",[4],small changes in the fura-2 ratio
same,Activation of whole-cell hTRPA1 current,[7]; [11],did not activate hTRPA1
same,Inhibition of the menthol-induced increase in fura-2 ratio,[8],almost completely blocked
same,IC50,[5],120 ± 30 µM
same,Inhibition of AITC-induced hTRPA1 current,[5],completely inhibited
same,Inhibition of FFA-activated hTRPA1-mediated current,[5],completely inhibited
same,Inhibition of menthol-activated hTRPA1-mediated current,[5],completely inhibited
same,Effect on fura-2 ratio in vector-transfected cells,[9],did not provide any effect; also recorded: No changes in the fura-2 ratio
"C=CCN=C=S [AITC, allyl isothiocyanate, reference compound]",Activation of whole-cell hTRPA1 current,[7]; AITC 20 μM,robust current activation with outward rectification
CC1(C)[C@@H]2CC[C@@]1(C)[C@@H](O)C2 [(+)-borneol],Comparison of inhibitory effects on hTRPA1 activity between optical isomers of borneol,[5],no difference in the inhibitory effects
O=C1CC2CC[C@H]1C2 [Norcamphor],"Change in fura-2 ratio (340/380 nm) by test compound, normalized to the change by 1 mM menthol",[4],small changes in the fura-2 ratio
same,Activation of whole-cell hTRPA1 current,[7]; [11],did not activate hTRPA1
same,Inhibition of the menthol-induced increase in fura-2 ratio,[8],did not inhibit
same,Effect on fura-2 ratio in vector-transfected cells,[9],did not provide any effect; also recorded: No changes in the fura-2 ratio
CC1(C)C2CCC1(C)C(O)C2 (centres unmarked) [Borneol],"Change in fura-2 ratio (340/380 nm) by test compound, normalized to the change by 1 mM menthol",[4],small changes in the fura-2 ratio
same,Activation of whole-cell hTRPA1 current,[7]; [11],did not activate hTRPA1
same,Inhibition of the menthol-induced increase in fura-2 ratio,[8],almost completely blocked
same,IC50,[5],200 ± 60 µM
same,Inhibition of AITC-induced hTRPA1 current,[5],completely inhibited
same,Inhibition of FFA-activated hTRPA1-mediated current,[5],completely inhibited
same,Inhibition of menthol-activated hTRPA1-mediated current,[5],completely inhibited
same,Inhibitory effect on AITC-activated current of hTRPA1-S873V/T874L compared with hTRPA1-WT,[1],significantly lower
same,Inhibitory effect on AITC-activated current of hTRPA1-Y812A compared with hTRPA1-WT,[2],significantly lower inhibitory effect
same,Effect on fura-2 ratio in vector-transfected cells,[9],did not provide any effect; also recorded: No changes in the fura-2 ratio
same,Effect of borneol on the Y812A mutant in Ca2+-imaging,[10],reduced
CC12CCC(C1)C(C)(C)C2O (centres unmarked) [Fenchyl alcohol],Activation of whole-cell hTRPA1 current,[7]; [11],did not activate hTRPA1
same,Inhibition of AITC-induced hTRPA1 current,[5],completely inhibited
same,Inhibition of FFA-activated hTRPA1-mediated current,[5],completely inhibited
same,Inhibition of menthol-activated hTRPA1-mediated current,[5],completely inhibited
